Test results reported in ChEMBL document CHEMBL1148727, “Discovery of 1,4-dihydroxy-2-naphthoate [corrected] prenyltransferase inhibitors: new drug leads for multidrug-resistant gram-positive pathogens” (2007).
In brackets after ≈: the same amount, converted by molar mass.

Experiments:
Format in all cases: functional
Mycobacterium avium = test: Antibacterial activity against Mycobacterium avium Flamingo after 18 hrs by agar plate dilution method
[1] = system: Mycobacterium intracellulare; test: Antibacterial activity against Mycobacterium intracellular ATCC 15984 after 18 hrs by agar plate dilution method; settings: ATCC 15984, 18 h
[2] = system: Mycolicibacterium fortuitum; test: Antibacterial activity against Mycobacterium fortuitum NIHJ1615 after 18 hrs by agar plate dilution method
[3] = system: Mycolicibacterium smegmatis; test: Antibacterial activity against Mycobacterium smegmatis Takeo after 18 hrs by agar plate dilution method
[4] = system: Mycobacterium tuberculosis; test: Antibacterial activity against Mycobacterium tuberculosis H37Rv after 18 hrs by agar plate dilution method
Mycolicibacterium aurum = test: Antibacterial activity against Mycobacterium aurum after 18 hrs by agar plate dilution method
Staphylococcus aureus [5] = test: Antibacterial activity against methicillin-resistant Staphylococcus aureus Mu50 after 18 hrs by agar plate dilution method; settings: Mu50, 18 h
Enterococcus faecalis [6] = test: Antibacterial activity against vancomycin-resistant Enterococcus faecalis NCTC-12201 after 18 hrs by agar plate dilution method
Enterococcus faecalis [7] = test: Antibacterial activity against vancomycin-resistant Enterococcus faecalis NCTC-12203 after 18 hrs by agar plate dilution method
Staphylococcus aureus [8] = test: Antibacterial activity against Staphylococcus aureus FDA209P after 18 hrs by agar plate dilution method
Staphylococcus aureus [9] = test: Antibacterial activity against Staphylococcus aureus Smith after 18 hrs by agar plate dilution method
Pseudomonas aeruginosa = test: Antibacterial activity against Pseudomonas aeruginosa 46001 by agar plate dilution method
Staphylococcus aureus [10] = test: Antibacterial activity against methicillin-resistant Staphylococcus aureus after 18 hrs by agar plate dilution method
Staphylococcus aureus [11] = test: Antibacterial activity against vancomycin-resistant Staphylococcus aureus 70 after 18 hrs by agar plate dilution method
Staphylococcus aureus [12] = test: Antibacterial activity against methicillin-resistant Staphylococcus aureus 92-1191 after 18 hrs by agar plate dilution method
Staphylococcus aureus [13] = test: Antibacterial activity against Linezolid and methicillin-resistant Staphylococcus aureus 06 after 18 hrs by agar plate dilution method
Staphylococcus aureus [14] = test: Antibacterial activity against Staphylococcus aureus macrolide-resistance after 18 hrs by agar plate dilution method
Escherichia coli = test: Antibacterial activity against Escherichia coli NIHJ JC2 by agar plate dilution method
Klebsiella pneumoniae = test: Antibacterial activity against Klebsiella pneumoniae NCTN9632 by agar plate dilution method
Proteus mirabilis = test: Antibacterial activity against Proteus mirabilis IFO3849 by agar plate dilution method

| SMILES | MIC (Mycobacterium avium) [µg/mL] | MIC [1] [µg/mL] | MIC [2] [µg/mL] | MIC [3] [µg/mL] | MIC [4] [µg/mL] | MIC (Mycolicibacterium aurum) [µg/mL] | MIC (Staphylococcus aureus [5]) [µg/mL] | MIC (Enterococcus faecalis [6]) [µg/mL] | MIC (Enterococcus faecalis [7]) [µg/mL] | MIC (Staphylococcus aureus [8]) [µg/mL] | MIC (Staphylococcus aureus [9]) [µg/mL] | MIC (Pseudomonas aeruginosa) [µg/mL] | MIC (Staphylococcus aureus [10]) [µg/mL] | MIC (Staphylococcus aureus [11]) [µg/mL] | MIC (Staphylococcus aureus [12]) [µg/mL] | MIC (Staphylococcus aureus [13]) [µg/mL] | MIC (Staphylococcus aureus [14]) [µg/mL] | MIC (Escherichia coli) [µg/mL] | MIC (Klebsiella pneumoniae) [µg/mL] | MIC (Proteus mirabilis) [µg/mL] |
| --- | --- | --- | --- | --- | --- | --- | --- | --- | --- | --- | --- | --- | --- | --- | --- | --- | --- | --- | --- | --- |
| C=CCN(C)CCCCCCCCOc1ccc(C(=O)c2ccc(Cl)cc2)c(O)c1 | 6.3 (≈ 14.7 µM) | 6.3 (≈ 14.7 µM) | 12.5 (≈ 29.1 µM) | 12.5 (≈ 29.1 µM) | 1.5 (≈ 3.49 µM) | 6.3 (≈ 14.7 µM) | > 12.5 | > 12.5 | > 12.5 | > 12.5 | > 12.5 | – | – | – | – | – | – | – | – | – |
| CN(CCCOC/C=C/COc1ccc(C(=O)c2ccc(Cl)cc2)c(O)c1)CCc1ccc(F)cc1 | – | – | – | – | 12.5 (≈ 24.4 µM) | – | 8 (≈ 15.6 µM) | 8 (≈ 15.6 µM) | 2 (≈ 3.91 µM) | 4 (≈ 7.81 µM) | 8 (≈ 15.6 µM) | > 128 | 4 (≈ 7.81 µM) | 4 (≈ 7.81 µM) | 4 (≈ 7.81 µM) | 8 (≈ 15.6 µM) | 4 (≈ 7.81 µM) | > 128 | > 128 | > 128 |
| NNC(=O)c1ccncc1 [ISONIAZID] | > 25 | 12.5 (≈ 91.1 µM) | 6.3 (≈ 45.9 µM) | 12.5 (≈ 91.1 µM) | 0.1 (≈ 0.729 µM) | 6.3 (≈ 45.9 µM) | – | – | – | – | – | – | – | – | – | – | – | – | – | – |
| CC(=O)NC[C@H]1CN(c2ccc(N3CCOCC3)c(F)c2)C(=O)O1 [LINEZOLID] | – | – | – | – | – | – | – | – | – | – | – | > 128 | – | – | – | 32 (≈ 94.9 µM) | – | 128 (≈ 379 µM) | > 128 | 128 (≈ 379 µM) |
| CO[C@H]1/C=C/O[C@@]2(C)Oc3c(C)c(O)c4c(O)c(c(/C=N/N5CCN(C)CC5)c(O)c4c3C2=O)NC(=O)/C(C)=C\C=C\[C@H](C)[C@H](O)[C@@H](C)[C@@H](O)[C@@H](C)[C@H](OC(C)=O)[C@@H]1C [RIFAMPIN] | 3.1 (≈ 3.77 µM) | 3.1 (≈ 3.77 µM) | > 25 | > 25 | 0.2 (≈ 0.243 µM) | 0.78 (≈ 0.948 µM) | – | – | – | – | – | – | – | – | – | – | – | – | – | – |
| CN[C@H](CC(C)C)C(=O)N[C@H]1C(=O)N[C@@H](CC(N)=O)C(=O)N[C@H]2C(=O)N[C@H]3C(=O)N[C@H](C(=O)N[C@H](C(=O)O)c4cc(O)cc(O)c4-c4cc3ccc4O)[C@H](O)c3ccc(c(Cl)c3)Oc3cc2cc(c3O[C@@H]2O[C@H](CO)[C@@H](O)[C@H](O)[C@H]2O[C@H]2C[C@](C)(N)[C@H](O)[C@H](C)O2)Oc2ccc(cc2Cl)[C@H]1O [VANCOMYCIN] | – | – | – | – | – | – | – | > 128 | > 128 | – | – | > 128 | – | – | – | – | – | > 128 | > 128 | > 128 |
